Assay results reported in DBAASP.
In brackets after ≈: the same amount, converted by molar mass. Several values for one entry are separate records, joined by “and”; a condition that tells them apart may be missing. Equal values may be shown once. Values belong to the compound of their own block, whether it stands above or below them.

Key:
Assay in all cases: ≥ marks a high value that may be exact or a test limit, other limits are often not marked, values filed in µg/mL are converted to µM
[1] = test system: Pseudomonas aeruginosa ATCC 27853
Escherichia coli UB1005 = test system: Escherichia coli UB1005
[2] = test system: Candida parapsilosis CGMCC 2.3989
[3] = test system: Staphylococcus epidermidis ATCC 12228
Escherichia coli K99 = test system: Escherichia coli K99
Escherichia coli K88 = test system: Escherichia coli K88
[4] = test system: Staphylococcus aureus ATCC 25923
[5] = test system: Salmonella enterica subsp. enterica serovar Typhimurium ATCC 14028
[6] = test system: Salmonella enterica subsp. enterica serovar Typhimurium C77-31
[7] = test system: Salmonella enterica subsp. enterica serovar Pullorum ATCC 7913
[8] = test system: Staphylococcus aureus ATCC 43300
[9] = test system: Candida tropicalis CGMCC 2.1975
Escherichia coli 078 = test system: Escherichia coli 078
[10] = test system: Legionella pneumophila Lens
[11] = test system: Salmonella enterica subsp. enterica serovar Pullorum C79-13
[12] = test system: Lacticaseibacillus rhamnosus 1.0936
[13] = test system: Escherichia coli ATCC 25922
[14] = test system: Escherichia coli O157:H7 CICC 21530
[15] = test system: Lacticaseibacillus rhamnosus 8014
[16] = test system: Lacticaseibacillus rhamnosus 1.0911
[17] = test system: Staphylococcus aureus ATCC 29213
[18] = test system: Salmonella enterica subsp. enterica serovar Choleraesuis CVCC 503
[19] = test system: Streptococcus agalactiae BNCC 185941
[20] = test system: Lacticaseibacillus rhamnosus 1.9021
[21] = test system: Pseudomonas aeruginosa PAO1
[22] = test system: Staphylococcus aureus UAMS-1
[23] = test system: Staphylococcus aureus Newman
[24] = test system: Staphylococcus epidermidis 1457
[25] = test system: Staphylococcus aureus MU50
[26] = test system: Candida glabrata ATCC 2001
Bacillus subtilis 168 = test system: Bacillus subtilis 168
[27] = test system: Staphylococcus aureus USA 200
[28] = test system: Candida albicans ATCC 10231
[29] = test system: Candida tropicalis ATCC 13803
[30] = test system: Staphylococcus aureus USA 400
[31] = test system: Staphylococcus aureus USA 300
[32] = test system: Klebsiella pneumoniae ATCC 13883
Micrococcus luteus = test system: Micrococcus luteus
Escherichia coli = test system: Escherichia coli
Vibrio harveyi = test system: Vibrio harveyi
Vibrio campbellii = test system: Vibrio campbellii
Vibrio alginolyticus = test system: Vibrio alginolyticus
Vibrio parahaemolyticus = test system: Vibrio parahaemolyticus
[33] = test system: Staphylococcus epidermidis

MIC [1]: 8 µM (≈ 11.7 µg/mL)
MIC (Escherichia coli UB1005): 4 µM (≈ 5.83 µg/mL)
MIC [2]: 8 µM (≈ 11.7 µg/mL)
MIC [3]: 4 µM (≈ 5.83 µg/mL)
MIC (Escherichia coli K99): 4 µM (≈ 5.83 µg/mL)
MIC (Escherichia coli K88): 4 µM (≈ 5.83 µg/mL)
MIC [4]: 8 µM (≈ 11.7 µg/mL)
MIC [5]: 4 µM (≈ 5.83 µg/mL)
MIC [6]: 4 µM (≈ 5.83 µg/mL)
MIC [7]: 4 µM (≈ 5.83 µg/mL)
MIC [8]: 8 µM (≈ 11.7 µg/mL)
MIC [9]: 4 µM (≈ 5.83 µg/mL)
MIC (Escherichia coli 078): 4 µM (≈ 5.83 µg/mL)
Compound: CC[C@H](C)[C@H](NC(=O)[C@H](Cc1c[nH]c2ccccc12)NC(=O)[C@H](CCCN=C(N)N)NC(=O)[C@H](CC(C)C)NC(=O)[C@@H](NC(=O)[C@H](CCCN=C(N)N)NC(=O)[C@H](CCCN=C(N)N)NC(=O)[C@H](C)NC(=O)[C@H](C)N)[C@@H](C)CC)C(=O)N[C@@H](Cc1ccccc1)C(=O)N[C@@H](CCCN=C(N)N)C(N)=O [AARRILRWIFR]

MIC [10]: 1.25 µM (≈ 3.14 µg/mL)
Compound: CC[C@H](C)[C@H](NC(=O)[C@H](Cc1ccccc1)NC(=O)[C@H](CC(=O)O)NC(=O)[C@H](C)NC(=O)[C@@H](N)CCSC)C(=O)N[C@@H](C)C(=O)N[C@@H](CCCCN)C(=O)N[C@H](C(=O)N[C@H](C(=O)N[C@@H](CCC(=O)O)C(=O)N[C@H](C(=O)N[C@H](C(=O)N[C@@H](CCCCN)C(=O)NCC(=O)N[C@@H](CC(C)C)C(=O)N[C@H](C(=O)N[C@@H](CC(=O)O)C(=O)N[C@@H](CCC(N)=O)C(=O)N[C@@H](Cc1ccccc1)C(=O)N[C@H](C(=O)N[C@@H](CCC(N)=O)C(=O)N[C@@H](CCCCN)C(=O)O)[C@@H](C)O)[C@@H](C)CC)C(C)C)[C@@H](C)CC)C(C)C)[C@@H](C)CC [MADFIAKIVEIVKGLIDQFTQK]

MIC [1]: 4 µM (≈ 5.13 µg/mL)
MIC [3]: 64 µM (≈ 82.1 µg/mL)
MIC [11]: 8 µM (≈ 10.3 µg/mL)
MIC [12]: ≥ 64 µM
MIC [13]: 8 µM and 16 µM
MIC [14]: 4 µM (≈ 5.13 µg/mL)
MIC [15]: 16 µM (≈ 20.5 µg/mL)
MIC [16]: 16 µM (≈ 20.5 µg/mL)
MIC (Escherichia coli K88): 2 µM (≈ 2.57 µg/mL)
MIC [5]: 16 µM (≈ 20.5 µg/mL)
MIC [17]: 16 µM (≈ 20.5 µg/mL)
MIC [19]: ≥ 128 µM
MIC [8]: 16 µM (≈ 20.5 µg/mL)
MIC [20]: ≥ 32 µM
MIC [21]: 16 µM (≈ 20.5 µg/mL)
Compound: CC[C@H](C)[C@H](NC(=O)CNC(=O)[C@@H](NC(=O)[C@H](Cc1c[nH]c2ccccc12)NC(=O)[C@@H](NC(=O)CNC(=O)[C@@H](NC(=O)[C@H](CCCCN)NC(=O)[C@@H](N)CCCCN)[C@@H](C)CC)[C@@H](C)CC)[C@@H](C)CC)C(=O)N[C@@H](CCCCN)C(=O)N[C@@H](CCCCN)C(N)=O [KKIGIWIGIKK]
MIC [18]: 8 µM (≈ 10.3 µg/mL)

MIC [22]: 25 µM (≈ 34.9 µg/mL)
MIC [23]: 12.5 µM (≈ 17.5 µg/mL)
MIC [13]: > 50 µM
MIC [24]: 12.5 µM (≈ 17.5 µg/mL)
MIC [25]: 12.5 µM (≈ 17.5 µg/mL)
MIC [26]: ≥ 50 µM
MIC (Bacillus subtilis 168): ≥ 35.4 µM
MIC [27]: 25 µM (≈ 34.9 µg/mL)
MIC [28]: 50 µM (≈ 69.8 µg/mL)
MIC [29]: 8.8 µM (≈ 12.3 µg/mL)
MIC [30]: 12.5 µM (≈ 17.5 µg/mL)
MIC [31]: 12.5 µM (≈ 17.5 µg/mL)
MIC [21]: > 50 µM
MIC [32]: ≥ 50 µM
Compound: CC[C@H](C)[C@H](NC(=O)CNC(=O)[C@H](CO)NC(=O)[C@@H](NC(=O)[C@H](CC(C)C)NC(=O)[C@H](CCCN=C(N)N)NC(=O)CNC(=O)[C@@H](NC(=O)[C@@H](NC(=O)[C@@H]1CCCN1C(=O)[C@H](CC(C)C)NC(=O)[C@@H](N)Cc1ccccc1)[C@@H](C)CC)C(C)C)[C@@H](C)CC)C(=O)N[C@@H](CC(C)C)C(N)=O [FLPIVGRLISGIL]

MIC (Micrococcus luteus): ≥ 64 µM
MIC (Escherichia coli): > 64 µM
MIC (Vibrio harveyi): ≥ 64 µM
MIC (Vibrio campbellii): ≥ 64 µM
MIC (Vibrio alginolyticus): ≥ 64 µM
MIC [33]: ≥ 64 µM
Compound: CC[C@H](C)[C@H](NC(=O)[C@H](Cc1ccccc1)NC(=O)[C@H](Cc1ccc(O)cc1)NC(=O)[C@@H]1CCCN1C(=O)[C@H](CCCN=C(N)N)NC(=O)[C@@H](NC(=O)[C@H](CO)NC(=O)[C@H](Cc1ccc(O)cc1)NC(=O)[C@H](CO)NC(=O)[C@H](CS)NC(=O)[C@H](Cc1ccc(O)cc1)NC(C)=O)[C@@H](C)O)C(=O)N[C@@H](CCCN=C(N)N)C(=O)N[C@@H](Cc1c[nH]c2ccccc12)C(=O)N[C@@H](CCC(N)=O)C(=O)N[C@@H](CC(C)C)C(=O)N[C@@H](CCCCN)C(=O)N[C@@H](Cc1ccccc1)C(=O)N[C@@H](CCCCN)C(=O)N[C@H](C(=O)N[C@@H](CCCCN)C(=O)N[C@H](C(=O)N[C@@H](Cc1c[nH]c2ccccc12)C(=O)N[C@@H](CS)C(=O)N1CCC[C@H]1C(N)=O)[C@@H](C)CC)[C@@H](C)O [YCSYSTRPYFIRWQLKFKTKIWCP]
MIC (Vibrio parahaemolyticus): ≥ 64 µM
